Source: publication PMC4503980 (Scientific Reports, 2015)

Tests used:
Format in all cases: binding
[1] = biological target: T1, TAMRA-nNOS/PSD-95-PDZ2 interaction (Homo sapiens, UniProt P29475+P78352, V36C); experiment: 'direct' FP assay, TAMRA-nNOS / PDZ2 (saturation and inhibition)
T1 construct: nNOS-PDZ (12–130, human); PDZ2 (155-249); made in house; host or cells: E. coli
Protocol: The assay was established by creating a fluorescent version of nNOS-PDZ by TAMRA-labelling nNOS-PDZ via an introduced cysteine residue (V36C). […] However, up to 7.3 μM no inhibition of TAMRA-nNOS/PSD-95-PDZ interactions could be measured (data not shown).
(a) Saturation curves between TAMRA-nNOS (5 nM) and PDZ1, PDZ2, and PDZ1-2 of PSD-95. […] Error bars indicate SEM based on three individual measurements.
nNOS-PDZ (12–130, human) and α-Syntrophin-PDZ (82–200, human), both comprising an N-terminal His-tag/FXa-site sequence ([…]), were likewise expressed in E. coli and purified by HisTrap chromatography followed by gel-filtration as described in details previously. To make the TAMRA-labelled nNOS-PDZ, mutant nNOS-PDZ (V36C) protein was generated by standard site-directed mutagenesis and characterized as described previously. […]
Incubation time was 10–15 minutes (room temperature), and the assay was performed in a 1 × TBS buffer (150 mM NaCl, 10 mM Tris, pH 7.4) using black flat-bottom 384-well plates (Corning Life Sciences, NY) and a Safire2 plate-reader (Tecan, Männedorf, Switzerland). […] TAMRA- and Cy5-probes were measured at excitation/emission values of 530/585 nm (bandwidth = 20 nm) and 635/670 nm (bandwidth = 15 nm), respectively. […]

[2] = biological target: T2, TAMRA-nNOS/PSD-95-PDZ1-2 interaction (Homo sapiens, UniProt P29475+P78352, V36C); experiment: 'direct' FP assay, TAMRA-nNOS / PDZ1-2 (saturation and inhibition)
T2 construct: nNOS-PDZ (12–130, human); PDZ1-2 (61-249); made in house; host or cells: E. coli
T2 sequence (P29475 12-130 V36C): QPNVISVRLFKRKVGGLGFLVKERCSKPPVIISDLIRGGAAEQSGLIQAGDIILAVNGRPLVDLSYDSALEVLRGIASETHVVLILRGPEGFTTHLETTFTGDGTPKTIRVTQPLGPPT
T2 sequence (P78352 61-249): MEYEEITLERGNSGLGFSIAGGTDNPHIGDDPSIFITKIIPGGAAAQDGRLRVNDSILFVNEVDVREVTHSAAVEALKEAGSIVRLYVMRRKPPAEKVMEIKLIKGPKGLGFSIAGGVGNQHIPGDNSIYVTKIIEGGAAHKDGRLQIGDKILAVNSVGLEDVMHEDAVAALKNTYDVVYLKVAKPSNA
Description: nNOS-PDZ (12–130, human) and α-Syntrophin-PDZ (82–200, human), both comprising an N-terminal His-tag/FXa-site sequence ([sequence]), were likewise expressed in E. coli and purified by HisTrap chromatography followed by gel-filtration as described in details previously[19]. To make the TAMRA-labelled nNOS-PDZ, mutant nNOS-PDZ (V36C) protein was generated by standard site-directed mutagenesis and characterized as described previously[19]. […]
FP values were fitted to the general equation: Y = Bottom + (Top–Bottom)/[1 + (10^(X-logIC50)*HillSlope)], where X is the logarithmic value of peptide/compound concentration, and Y is the experimental FP values. Competitive inhibition constants, Ki values, were calculated from the IC50 values to quantify affinities between test substance and protein[42].

[3] = biological target: T3, nNOS-PDZ/PSD-95-PDZ2 interaction (Homo sapiens, UniProt P29475); experiment: 'indirect' FP assay, Cnskr2 probe / PSD-95-PDZ2 / nNOS-PDZ; conditions: for activity in indirect FP assay (nNOS-PDZ/PSD-95-PDZ2): up to 500–600 μM, Cy5-Cnskr2 5 nM / PSD-95-PDZ2 3 μM / nNOS-PDZ 5 μM
T3 construct: nNOS-PDZ (12–130, human); PDZ2 (155-249); made in house; host or cells: E. coli
T3 sequence (P29475 12-130): as the sequence (P29475 12-130 V36C) above, with C25V counted along it
Description: First we tested a series of 23 fluorescent-labelled C-terminal peptide ligands (Supplementary Table S1) derived from PDZ-interacting proteins in order to find a probe with good activity towards the PSD-95 PDZ domains and no or little activity against nNOS-PDZ (Supplementary Fig. S1). The Cnskr2 probe fulfilled these selectivity criteria and was used to generate saturation curves with PDZ2 and PDZ1-2 of PSD-95 (Fig. 4a). […] Next, fixed concentrations of TAMRA-Cnskr2, PSD-95-PDZ2/1-2, and nNOS-PDZ were applied, corresponding to the conditions at IC50 of the nNOS-PDZ inhibition curve (Fig. 4b) where sensitivity of the assay is greatest. […] Here, we used the Sapk3-peptide as it has the desired high affinity to α1-Syntrophin-PDZ and low affinity to nNOS-PDZ (Supplementary Fig. S1).
The minor increases in mP at high concentrations, 260-2900 μM, were due to fluorescence artefacts.
Similar, this assay was established with Syntrophin-PDZ and Sapk3 as probe (Fig. 4d).
In all cases, the DMSO effect on the assay was tested and found negligible.

[4] = up to 7.3 μM (fluorescence artefacts above), data not shown

T1 sequence (P29475 12-130 V36C): as the sequence (P29475 12-130 V36C) above
T1 sequence (P78352 155-249): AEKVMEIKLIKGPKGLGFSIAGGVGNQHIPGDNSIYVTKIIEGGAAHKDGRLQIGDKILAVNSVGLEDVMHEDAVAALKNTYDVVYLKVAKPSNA

Oc1c(Cl)cc(Cl)cc1CNc1ccc2[nH]nnc2c1 [IC87201, 2-((1H-Benzo[d][1–3]triazol-5-ylamino)methyl)-4-6-dichlorophenol]
inhibition of TAMRA-nNOS/PDZ2 interaction [1, 4]: no inhibition
inhibition of TAMRA-nNOS/PDZ1-2 interaction [2, 4]: no inhibition
activity in indirect FP assay (nNOS-PDZ/PSD-95-PDZ2) [3]: no activity

O=C(O)c1ccc(NCc2cc(Cl)cc(Cl)c2O)cc1O [ZL006, 4-((3,5-Dichloro-2-hydroxybenzyl)amino)-2-hydroxybenzoic acid]
inhibition of TAMRA-nNOS/PDZ2 interaction ([1]; tested at up to 1200 μM, TAMRA-nNOS 5 nM, PDZ2 2.5 μM): no activity
inhibition of TAMRA-nNOS/PDZ1-2 interaction ([2]; tested at up to 1200 μM, TAMRA-nNOS 5 nM, PDZ1-2 0.3 μM): no activity
rise in FP signal (inhibition of nNOS-PDZ/PSD-95-PDZ2) ([3]; ZL006 0-2900 μM, TAMRA-Cnskr2 5 nM / PSD-95-PDZ2 […] / nNOS-PDZ 1 μM): no rise in FP signal
activity in indirect FP assay (nNOS-PDZ/PSD-95-PDZ2) [3]: no activity
